The text below walks through data of patent US7026347B2, “Porphyrin-polyamine conjugates for cancer therapy” (CellGate, Inc., priority 2002, dated 2006).

What all share (type): cell-based
Assay [1] has as its system Panc-1 human pancreatic cancer cells. The assay is described as follows: MTT assay, human pancreatic cancer cell growth, Panc-1. Conditions: 144 h, Panc-1 cells, MTT six days after drug treatment, read-out: ID50(μM) values for Human Pancreatic Cancer Cell Lines Panc-1. Here is the method:
(§1) A conventional MTT assay was used to evaluate percent cell survival. Exponentially growing monolayer cells were plated in 96-well plates at a density of 500 cells per well and allowed to grow for 24 hours. Serial dilutions of the drugs were added to the wells. Six days after drug treatment, 25 μl of MTT solution (5 mg/ml) was added to each well and incubated for 4 hours at 37° C. Then 100 μl of lysis buffer (20% sodium dodecyl sulfate, 50% DMF, and 0.8% acetic acid, pH 4.7) was added to each well and incubated for an additional 22 hours. A microplate reader (“EMAX”-brand, Molecular Devices, Sunnyvale, Calif.) set at 570 nm was used to determine the optical density of the cultures. Results are expressed as a ratio of the optical density in drug-treated wells to the optical density in wells treated with vehicle only. FIGS. 1–13 also indicate the effects of the compounds on various cell lines.

Assay [2] concerns Tsu-pr1-ADR human prostate tumor cells. The assay can be described thus: MTT assay, human prostate tumor cell growth, Tsu-pr1-ADR. Conditions: 144 h, MTT six days after drug treatment, read-out: ID50 (μM) values for Human prostate tumor Cell Lines Tsu-pr1-ADR. The method, then:
as §1

Assay [3] concerns DuPro human prostate tumor cells. The assay is described as follows: MTT assay, human prostate tumor cell growth, DuPro. Conditions: 144 h, MTT six days after drug treatment, read-out: ID50 (μM) values for Human prostate tumor Cell Lines DuPro. The method, then: as §1
Assay [4] relates to BxPC-3 human pancreatic cancer cells. The assay can be described thus: MTT assay, human pancreatic cancer cell growth, BxPC-3. Conditions: 144 h, BxPC-3 cells, MTT six days after drug treatment, read-out: ID50(μM) values for Human Pancreatic Cancer Cell Lines BxPC-3. Here is the method:
as §1

In assay [5] the test system is PC-3 human prostate tumor cells. The assay can be described thus: MTT assay, human prostate tumor cell growth, PC-3. The settings on record: 144 h, PC-3 cells, MTT six days after drug treatment, read-out: ID50 (μM) values for Human prostate tumor Cell Lines PC-3. The method, then:
as §1

Assay [6] concerns Tsu-pr1 human prostate tumor cells. The assay can be described thus: MTT assay, human prostate tumor cell growth, Tsu-pr1. The settings on record: 144 h, MTT six days after drug treatment, read-out: ID50 (μM) values for Human prostate tumor Cell Lines Tsu-pr1. The method, then: as §1
Assay [7] concerns Human Brain Tumor Cells U251MG NCI. The assay is described as follows: MTT assay, human brain tumor cell growth, U251MG NCI. Conditions: U-251, 144 h, MTT six days after drug treatment, read-out: ID50(μM) values for Human Brain Tumor Cells U251MG NCI. Here is the method: as §1

On to `CCCCCCCCCCCCCC1CCN(CCCNC(=O)CCC2=C(C)c3cc4[nH]c(cc5nc(cc6[nH]c(cc2n3)c(CCC(=O)NCCCN2CCCN(C)CCCCN(C)CCCN(C)C(CCCCCCCCCCCCC)CC2)c6C)C(CC)=C5C)c(CC)c4C)CCCN(C)CCCCN(C)CCCN1C` (stereo not drawn) [SL-11237], for which the IC50 in assay [1] stood at 12.5 µM; in assay [2], 12.6 µM; in assay [3], 1.9 µM; in assay [4] it was 5.92 µM; in assay [5], 1.7 µM; in assay [6], 1.87 µM. For the same compound, the IC50 in assay [7] is 2.3 µM.

Regarding `CCNCCCCNCC1CC1CNCCCCN(CC)C(=O)CCC1=C(C)c2cc3[nH]c(cc4nc(cc5[nH]c(cc1n2)c(CCC(=O)N(CC)CCCCNCC1CC1CNCCCCNCC)c5C)C(CC)=C4C)c(CC)c3C` (stereo not drawn) [SL-11217], the IC50 is 6.38 µM in assay [1]; 3.6 µM in assay [3]; 6.87 µM in assay [4]; 2.8 µM in assay [5]; 5.65 µM in assay [7].
